Measured values reported in US12275734B1, “Pleuromutilin onium salt derivative containing a 3H-imidazo[4,5-c]pyridine side chain, and a preparation method and application thereof” (SHAANXI UNIVERSITY OF SCIENCE AND TECHNOLOGY, priority 2024, dated 2025).
≈ marks a conversion by molar mass, not a printed value. Like-named read-outs stand apart in the source and are kept apart here.

Key:
Format in all cases: cell-based
A. baumannii ATCC 19606 = test: MIC, broth microdilution; conditions: Acinetobacter baumannii
In short: (§1)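 Broth microdilution in Mueller–Hinton broth: compounds two-fold serially diluted from a 2560 μg/mL stock (1% DMSO), inoculum 5×10^5 CFU/mL final from log-phase cultures, incubation 37 °C for 24 h. MIC taken as the lowest concentration inhibiting growth.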

E. coli ATCC 25922 = test: MIC, broth microdilution; conditions: Escherichia coli
In short: as §1

E.coli CMCC 44103 = test: MIC, broth microdilution; conditions: Escherichia coli
In short: as §1

[1] = tested on: Methicillin-resistant S. aureus ATCC 33591; test: MIC, broth microdilution; conditions: Staphylococcus aureus, ATCC 33591 / MRSA, read-out: Minimum inhibitory concentration MRSA^b
In short: as §1

[2] = tested on: Methicillin-resistant S. aureus ATCC 43300; test: MIC, broth microdilution; conditions: Staphylococcus aureus, ATCC 43300 / MRSA, read-out: Minimum inhibitory concentration MRSA^c
In short: as §1

[3] = tested on: Methicillin-resistant S. epidermidis ATCC 51625; test: MIC, broth microdilution; conditions: Staphylococcus epidermidis, ATCC 51625 / MRSE, read-out: Minimum inhibitory concentration MRSE^e
In short: as §1

S. aureus ATCC 29213 = test: MIC, broth microdilution; conditions: Staphylococcus aureus
In short: as §1

S. enterica ATCC14028 = test: MIC, broth microdilution; conditions: Salmonella enterica
In short: as §1

[4] = tested on: methicillin-resistant Staphylococcus aureus-171; test: MIC, clinical isolates
Experimental: (§2) The minimum inhibitory concentration of 3H-imidazo[4,5-C]pyridine pleuromutilin onium salt derivatives against the tested pathogenic microorganisms were determined by broth microdilution method, with valnemulin and retapamulin as positive controls.
(§3) The experimental strains included resistant Gram-positive bacteria: Methicillin-resistant S. aureus ATCC 33591; Methicillin-resistant S. aureus ATCC 43300; S. aureus ATCC 29213; Methicillin-resistant S. epidermidis ATCC 51625. Resistant Gram-negative bacteria: A. baumannii ATCC 19606; S. enterica ATCC14028; E. coli ATCC 25922; E. coli CMCC 44103. 9 clinically isolated resistant strains: MRSA-171; MRSA-575; MRSA-206; MRSA-222; MRSA-596; VRE-80; MDR-PA-126; MDR-KP-893; CR-AB-882.
(§4) (1) Preparation of MHB medium: Weigh 18.0 g of MHB medium pre-made powder, add it to 1 L of distilled water, heat and boil until completely dissolved, divide it into conical bottles, sterilize it by high pressure at 121° C. for 15 minutes, and set aside.
(§5) (2) Cultivate the experimental strain to the logarithmic growth phase: Under sterile conditions, inoculate the experimental strain into fresh MHB medium and culture it in a 37° C. constant temperature and humidity incubator for 16-24 hours. Adjust the bacterial solution concentration to 1.5×10^8 CFU/mL and then dilute it 200 times for later use.
(§6) (3) Preparation of storage solution: Weigh the sample to be tested, dissolve it in 1% DMSO solution, and prepare a storage solution with a concentration of 2560 μg/mL; weigh the positive control, dissolve it in sterile distilled water, and prepare a storage solution with a concentration of 2560 μg/mL.
(§7) (4) Preparation of bacterial suspension: Under sterile conditions, the experimental strain cultured to the logarithmic growth phase was calibrated to a 0.5 McFarland unit turbidity standard using MHB medium and then diluted at a ratio of 1:200 to prepare a bacterial suspension with a concentration of 5×10^5 CFU/mL for later use.
(§8) (5) Determination of MIC by two-fold microdilution method: Take a sterile 96-well plate, add 10 μL of the test compound at a concentration of 2560 μg/mL, and perform serial dilutions by the two-fold dilution method. At the same time, set up a negative control group without drug. Then add 190 μL of diluted bacterial solution to each well, so that the final bacterial solution concentration in each well is 5×10^5 CFU/mL, and incubate in a 37° C. constant temperature and humidity chamber for 24 hours.

[5] = tested on: methicillin-resistant Staphylococcus aureus-206; test: MIC, clinical isolates
Experimental: as §2, §3, §4, §5, §6, §7, §8

[6] = tested on: methicillin-resistant Staphylococcus aureus-222; test: MIC, clinical isolates; conditions: MRSA / MRSE
Experimental: as §2, §3, §4, §5, §6, §7, §8

[7] = tested on: methicillin-resistant Staphylococcus aureus-596; test: MIC, clinical isolates
Experimental: as §2, §3, §4, §5, §6, §7, §8

[8] = tested on: multidrug-resistant Klebsiella pneumoniae-893; test: MIC, clinical isolates; conditions: clinical isolate MDR-KP-893
Experimental: as §2, §3, §4, §5, §6, §7, §8

[9] = tested on: multidrug-resistant Pseudomonas aeruginosa-126; test: MIC, clinical isolates
Experimental: as §2, §3, §4, §5, §6, §7, §8

[10] = tested on: vancomycin-resistant Enterococcus-80; test: MIC, clinical isolates
Experimental: as §2, §3, §4, §5, §6, §7, §8

A549 Cells = test: Cytotoxicity, Cell Counting Kit-8
Experimental: (§9) Cell Counting Kit-8 was used to evaluate the cytotoxicity of the compounds.
(§10) (4) Cell culture: HepG2, HEK293 and A549 cells were evenly dispersed in culture medium, seeded into 96-well plates, and cultured under appropriate environmental conditions to keep the cells completely attached to the well walls.
(§11) (5) Compound treatment: Add different concentrations of compounds I-8 and I-9 to each well (the concentrations are 0.78, 1.56, 3.13, 6.25, 12.5, 25, 50 and 100 μM, respectively, and perform 6 parallel experiments). Set up a blank control group and a normal control group. After incubation for 24 hours, observe the cell condition, which observed under a microscope.
(§12) (6) CCK-8 solution treatment: Add CCK-8 solution to each well and incubate for 4 hours to allow it to react with the cells.
(§13) (7) Absorbance determination: Use a full-wavelength scanning multifunctional reader, place the 96-well plate in the instrument, oscillate to mix to make the color evenly distributed, and measure the absorbance value at 490 nm.
(§14) (8) Data analysis: Based on the measured absorbance values, the cell survival rate at different concentrations can be calculated. The median cytotoxic concentration was used to evaluate the cytotoxicity of the compound to A549, HEK293 and HepG2 cells.

HEK293 Cells = test: Cytotoxicity, Cell Counting Kit-8
Experimental: as §9, §10, §11, §12, §13, §14

HepG2 Cells = test: Cytotoxicity, Cell Counting Kit-8
Experimental: as §9, §10, §11, §12, §13, §14

`C=C[C@]1(C)C[C@@H](OC(=O)CSc2nc3cc[n+](Cc4ccc(C)cc4)cc3[nH]2)[C@]2(C)[C@H](C)CC[C@]3(CCC(=O)[C@H]32)[C@@H](C)[C@@H]1O` [Compound i, 5-(4-methylbenzyl)-2-((2-(((3aR,4R,5R,7S,8S,9R,9aS,12R)-8-hydroxy-4,7,9,12-tetramethyl-3-oxo-7-vinyldecahydro-4,9a-propancyclopenta[8]cyclo-5-yl)oxy)-2-oxoethyl)thio)-3H-imidazo[4,5-C]pyridine-5-ium] was tested, and the MIC (A. baumannii ATCC 19606; ATCC19606, A. baumannii ATCC 19606, read-out: Minimum inhibitory concentration A.b.^f) was 0.25 µg/mL, the MIC (E. coli ATCC 25922; ATCC25922, E. coli ATCC 25922, read-out: Minimum inhibitory concentration E.c.^h) was 0.125 µg/mL and the MIC (E.coli CMCC 44103; CMCC44103, E.coli CMCC 44103, read-out: Minimum inhibitory concentration E.c.^i) was 0.125 µg/mL. For the same molecule, the MIC ([1]; Methicillin-resistant S. aureus ATCC 33591) was 0.125 µg/mL, the MIC ([2]; Methicillin-resistant S. aureus ATCC 43300) was 0.0625 µg/mL and the MIC ([3]; Methicillin-resistant S. epidermidis ATCC 51625) was 0.0625 µg/mL. The MIC (S. aureus ATCC 29213; ATCC29213, S. aureus ATCC 29213, read-out: Minimum inhibitory concentration S.a.^d) was 0.0625 µg/mL, the MIC (S. enterica ATCC14028; S. enterica ATCC14028, read-out: Minimum inhibitory concentration S.e.^g) was 0.25 µg/mL and the MIC ([4]; clinical isolate MRSA-171, read-out: Antibacterial activity (MIC) MRSA^b) was 4 µg/mL. The MIC ([5]; clinical isolate MRSA-206, read-out: Antibacterial activity (MIC) MRSA^d) was 1 µg/mL, the MIC ([6]; clinical isolate MRSA-222, read-out: Antibacterial activity (MIC) MRSE^e) was 4 µg/mL and the MIC ([7]; clinical isolate MRSA-596, read-out: Antibacterial activity (MIC) MRSA^f) was 2 µg/mL. For the same molecule, the “Antibacterial activity (MIC) MDR-KP^i” value [8] was 2 µg/mL, the MIC ([9]; clinical isolate MDR-PA-126, read-out: Antibacterial activity (MIC) MDR-PA^h) was 4 µg/mL and the MIC ([10]; clinical isolate VRE-80, read-out: Antibacterial activity (MIC) VRE^g) was 4 µg/mL. The CC50 (A549 Cells; CCK-8, 24 hours incubation, read-out: CC50 A549 Cells) was greater than 100 µM, the CC50 (HEK293 Cells; CCK-8, 24 hours incubation, read-out: CC50 HEK293 Cells) was 96.4 µM and the CC50 (HepG2 Cells; CCK-8, 24 hours incubation, read-out: CC50 HepG2 Cells) was greater than 100 µM.
With `C=C[C@]1(C)C[C@@H](OC(=O)CS[C@@H]2C[C@H]3CC[C@@H](C2)N3C)[C@]2(C)[C@H](C)CC[C@]3(CCC(=O)[C@H]32)[C@@H](C)[C@@H]1O` [Retapamulin, reference compound] the MIC (A. baumannii ATCC 19606; ATCC19606, read-out: Minimum inhibitory concentration A.b.^f) was 4 µg/mL (≈ 7.73 µM), the MIC (E. coli ATCC 25922; ATCC25922, read-out: Minimum inhibitory concentration E.c.^h) was 32 µg/mL (≈ 61.8 µM) and the MIC (E.coli CMCC 44103; CMCC44103, read-out: Minimum inhibitory concentration E.c.^i) was 32 µg/mL (≈ 61.8 µM). It also gave an MIC [1] of 32 µg/mL (≈ 61.8 µM), an MIC [2] of 16 µg/mL (≈ 30.9 µM) and an MIC [3] of 32 µg/mL (≈ 61.8 µM). For the same molecule, the MIC (S. aureus ATCC 29213; ATCC29213, read-out: Minimum inhibitory concentration S.a.^d) was 4 µg/mL (≈ 7.73 µM), the MIC (S. enterica ATCC14028; ATCC14028, read-out: Minimum inhibitory concentration S.e.^g) was 128 µg/mL (≈ 247 µM) and the MIC ([4]; MRSA, read-out: Antibacterial activity (MIC) MRSA^b) was 128 µg/mL (≈ 247 µM). It also gave an MIC ([5]; MRSA, read-out: Antibacterial activity (MIC) MRSA^d) of 64 µg/mL (≈ 124 µM), an MIC ([6]; read-out: Antibacterial activity (MIC) MRSE^e) of 128 µg/mL (≈ 247 µM) and an MIC ([7]; MRSA, read-out: Antibacterial activity (MIC) MRSA^f) of 32 µg/mL (≈ 61.8 µM). For the same molecule, the “Antibacterial activity (MIC) MDR-KP^i” value [8] was 128 µg/mL, the MIC ([9]; read-out: Antibacterial activity (MIC) MDR-PA^h) was 64 µg/mL (≈ 124 µM) and the MIC ([10]; VRE, read-out: Antibacterial activity (MIC) VRE^g) was greater than 128 µg/mL. The CC50 (A549 Cells; human, 24 h) was 71.5 µM, the CC50 (HEK293 Cells; human, 24 h) was 57.5 µM and the CC50 (HepG2 Cells; human, 24 h) was 61.1 µM.
